How the values were obtained:
[1] = biological target: T1, PIM1 kinase (Homo sapiens, UniProt P11309); test: radiometric ([γ-33P]-ATP) kinase assay, PIM1 enzyme inhibition (Reaction Biology Corp.); format: biochemical
T1 construct: purchased Reaction Biology Corp. (Malvern, PA, USA), contract assay service
Description: Among a total of 42,613 natural products in the chemical database, 31,874 molecules that satisfied the physicochemical property criteria for a potential drug candidate were screened through docking simulations in the ATP-binding site of PIM1 kinase, as illustrated in Figure 1. Using the modified binding free energy function involving an accurate molecular dehydration term, 100 top-scoring compounds were selected as the virtual hits, all of which were commercially available from a compound vendor (InterBioScreen Ltd., https://www.ibscreen.com, accessed on 15 October 2019). All these putative inhibitors were tested for the presence of the inhibitory activity against PIM1 kinase with in vitro radiometric ([γ-^33P]-ATP) kinase assays (Reaction Biology Corp., Malvern, PA, USA).
The inhibitory activities of all compounds with respect to PIM1 were measured by Reaction Biology Corp. (Malvern, PA, USA) using radiometric kinase assays ([γ-^33P]-ATP). Briefly, the enzymatic reaction mixtures contained an artificial substrate peptide, poly-Glu-Tyr (4:1), in freshly prepared base reaction buffer (20 mM hydroxyethyl piperazine ethane sulfonic acid (HEPES) of pH 7.5, 10 mM MgCl2, 1 mM ethylene glycol tetraacetic acid (EGTA), 0.02% Brij-35, 0.02 mg/mL bovine serum albumin (BSA), 0.1 mM Na3VO4, 2 mM dithiothreitol (DTT), and 1% DMSO). PIM1 kinase was delivered into the substrate solution and gently mixed. Each inhibitor in 100% DMSO in a serial dilution was then delivered to the reaction mixture using the acoustic dispensing system (Echo550; nanoliter range). To initiate the enzymatic reaction, ^33P-ATP with a specific activity of 10 μCi/μL was added into the reaction mixture, which was further incubated for 2 h at room temperature. Radioactivity was then monitored by the filter-binding method after the reactions were spotted onto P81 ion exchange paper, and the filters were washed extensively in 0.75% phosphoric acid. Kinase activity data were expressed as the percent remaining kinase activity in test samples compared to vehicle (dimethyl sulfoxide) reactions. IC50 values and curve fits were calculated with Prism Software (GraphPad Software) at 10 different concentrations in duplicate.

[2] = system: T47D human breast cancer cell lines; test: MTT cell proliferation inhibition assay in T47D cells; format: cell-based; conditions: antiproliferative activity in T47D cell lines, mean ± standard deviation of the two experiments
Description: To assess the anticancer activities of these new PIM1 inhibitors, we carried out cell-based assays for 5, 8, 14, 15, and 16 using T47D human cancer cell lines, which represented breast cancer caused by PIM1 [48]. The natural product wortmannin served as a positive control in this cellular study. Cell viabilities were measured at varying inhibitor concentrations with a 3-(4,5-dimethylthiazol-2-yl)-2,5-diphenyltetrazolium bromide (MTT) assay. […]. However, it should be noted that the inhibitory activities of 14–16 decrease from the nanomolar level in enzyme inhibition assays (Table 2) to the micromolar level in cell proliferation assays. The poor cell permeability can be invoked to explain the reduced biochemical potency in cell-based assays. In order for the new PIM1 inhibitors to become a good lead compound for the development of anticancer medicines, improving cellular permeability using further structural modifications is required.
The T47D human breast cancer cell lines were purchased from Korean Cell Line Bank (KCLB, Seoul, Korea). T47D cells were then cultured in Roswell Park Memorial Institute 1640 (RPMI-1640) medium with 10% fetal bovine serum (FBS) and 1% penicillin/streptomycin, and maintained at 37 °C in a CO2 incubator with a controlled humidified atmosphere comprising 95% air and 5% CO2. All the cell culture reagents were purchased from Thermo Fisher Scientific.
Cell viability was measured with 3-(4,5-dimethylthiazol-2-yl)-2,5-diphenyltetrazolium bromide (MTT) assay using the natural product wortmannin as a positive control. At first, T47D cells were plated at a density of 3–5 × 10^3 cells/well in 96-well plates for 24 h and then treated with either DMSO as a control or with varying concentrations of the PIM1 inhibitors (5, 8, 14, 15, and 16). The final concentration of DMSO in the medium was <0.1% (v/v). After the incubation of cells for 48 h, 20 μL of MTT solution (5 mg/mL) was added to each well for 4 h at 37 °C. The formazan crystals formed during the mixing were dissolved in DMSO (100 μL/well) by shaking for 5 min. Duplicate wells were used for each analysis although triplicate measurements would be more reliable. After 72 h, the absorbance of each solution was measured with a microplate reader at 540 nm to calculate the antiproliferative activity of the PIM1 inhibitors. Finally, the IC50 values were measured from the dose–response curves.

[3] = PIM1 kinase, derivatives of 2, mean ± standard deviation of the two experiments
[4] = PIM1, natural-product inhibitors, mean ± standard deviation of the two experiments

T1 sequence (P11309 whole entry): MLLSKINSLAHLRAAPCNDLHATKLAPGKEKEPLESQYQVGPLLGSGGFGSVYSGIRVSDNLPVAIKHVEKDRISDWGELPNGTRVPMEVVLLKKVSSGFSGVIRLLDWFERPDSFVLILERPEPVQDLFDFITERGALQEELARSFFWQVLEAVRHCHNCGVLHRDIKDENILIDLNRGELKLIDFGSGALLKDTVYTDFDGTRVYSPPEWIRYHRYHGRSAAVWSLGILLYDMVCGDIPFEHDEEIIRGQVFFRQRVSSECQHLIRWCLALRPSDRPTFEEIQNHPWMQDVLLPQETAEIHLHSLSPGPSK

Compound | IC50 [1, 3] [nM] | IC50 [2] [nM] | also measured
O=C1/C(=C/c2ccc[nH]c2=O)Oc2cc(O)cc(O)c21 [Compound 12, (Z)-3-((4,6-Dihydroxy-3-oxobenzofuran-2(3H)-ylidene)methyl)pyridin-2(1H)-one] | 5860 ± 1000 | – | –
O=C1c2c(O)cc(O)cc2O[C@H](c2ccc(O)c(O)c2)[C@H]1O [Compound 3] | – | – | IC50 [1, 4]: 4000 ± 600 nM
COC[C@H]1OC(=O)c2coc3c2[C@@]1(C)C1=C(C3=O)[C@@H]2CCC(=O)[C@@]2(C)C[C@H]1OC(C)=O [wortmannin, reference compound] | – | 3400 ± 200 | –
O=c1c(-c2ccc(OC3OC(CO)C(O)C(O)C3O)cc2)coc2cc(O)cc(O)c12 (stereo not shown) [Compound 4] | – | – | IC50 [1, 4]: 20200 ± 2000 nM
COc1cc(O)c2c(c1)O/C(=C\c1c[nH]c3ncc(Cl)cc13)C2=O [Compound 15, (Z)-2-((5-Chloro-1H-pyrrolo[2,3-b]pyridin-3-yl)methylene)-4-hydroxy-6-methoxybenzofuran-3(2H)-one] | 8.8 ± 2 | 3200 ± 600 | –
O=C1/C(=C/c2ccc(Cl)c(Cl)c2)Oc2cc(O)cc(O)c21 [Compound 10, (Z)-2-(3,4-Dichlorobenzylidene)-4,6-dihydroxybenzofuran-3(2H)-one] | 680 ± 80 | – | –
COc1cc(O)c2c(c1)O/C(=C\c1cc(-c3ccncc3)[nH]n1)C2=O [Compound 14] | 18 ± 2 | 5900 ± 1000 | –
COc1cc(/C=C2\Oc3cc(O)ccc3C2=O)ccc1Cl [Compound 8, (Z)-2-(4-Chloro-3-methoxybenzylidene)-6-hydroxybenzofuran-3(2H)-one] | 200 ± 30 | 11200 ± 2000 | –
COc1cccc(/C=C2\Oc3cc(O)ccc3C2=O)c1 [Compound 5, (Z)-6-Hydroxy-2-(3-methoxybenzylidene)benzofuran-3(2H)-one] | 260 ± 50 | 15100 ± 1000 | –
O=C1/C(=C/c2c[nH]c3nc(Cl)ncc23)Oc2cc(O)cc(O)c21 [Compound 16, (Z)-2-((2-Chloro-7H-pyrrolo[2,3-d]pyrimidin-5-yl)methylene)-4,6-dihydroxybenzofuran-3(2H)-one] | 6.7 ± 3 | 4500 ± 800 | IC50 ([1]; PIM1): 7 nM
COc1cccc(/C=C2\Oc3cc(O)cc(O)c3C2=O)c1 [Compound 6, (Z)-4,6-Dihydroxy-2-(3-methoxybenzylidene)benzofuran-3(2H)-one] | 310 ± 20 | – | –
O=C1/C(=C/c2cccc(Cl)c2)Oc2cc(O)cc(O)c21 [Compound 7, (Z)-2-(3-Chlorobenzylidene)-4,6-dihydroxybenzofuran-3(2H)-one] | 1450 ± 100 | – | –
COc1cc(/C=C2\Oc3cc(O)cc(O)c3C2=O)ccc1Cl [Compound 9, (Z)-2-(4-Chloro-3-methoxybenzylidene)-4,6-dihydroxybenzofuran-3(2H)-one] | 150 ± 10 | – | –
O=C1/C(=C/c2cc3ccccc3[nH]c2=O)Oc2cc(O)cc(O)c21 [Compound 13, (Z)-3-((4,6-Dihydroxy-3-oxobenzofuran-2(3H)-ylidene)methyl)quinolin-2(1H)-one] | 1730 ± 300 | – | –
COc1ccc(/C=C2\Oc3cc(O)ccc3C2=O)cc1 [Compound 2] | 1190 ± 70 | – | IC50 [1, 4]: 1200 ± 100 nM
COc1c(O)c(O)c2oc(-c3ccccc3)cc(=O)c2c1OC [Compound 1] | – | – | IC50 [1, 4]: 580 ± 200 nM
COc1ccc(/C=C2\Oc3cc(O)ccc3C2=O)cn1 [Compound 11, (Z)-6-Hydroxy-2-((6-methoxypyridin-3-yl)methylene)benzofuran-3(2H)-one] | 5230 ± 400 | – | decrease of inhibitory activity by a factor ([1]; PIM1, relative to 5 (phenyl ring replaced with pyridine)): 20
